# Measured values: ChEMBL document CHEMBL1201862, “PubChem BioAssay data set” (2004)
#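 Results reflect a 48-hour exposure of cells in 96-well plates to compound at five concentrations. GI50: concentration for 50% inhibition of growth.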 Active and inactive are the calls of the source. Rule as the data show it: active = GI50 up to about 1.1 µM and inactive = higher.
# Key:
# Test in all cases: inhibition of tumour cell growth, NCI panel, 48 h
# 786-0 = system: 786-0
# A498 = system: A498
# A549 = system: A549
# ACHN = system: ACHN
# BT-549 = system: BT-549
# CAKI-1 = system: CAKI-1
# CCRF-CEM = system: CCRF-CEM
# COLO 205 = system: COLO 205
# DU-145 = system: DU-145
# HCC 2998 = system: HCC 2998
# HCT-116 = system: HCT-116
# HCT-15 = system: HCT-15
# HL-60 = system: HL-60
# HOP-62 = system: HOP-62
# HOP-92 = system: HOP-92
# HT-29 = system: HT-29
# Hs-578T = system: Hs-578T
# IGROV-1 = system: IGROV-1
# K562 = system: K562
# KM12 = system: KM12
# LOX IMVI = system: LOX IMVI
# M14 = system: M14
# MCF7 = system: MCF7
# MDA-MB-231 = system: MDA-MB-231
# MDA-MB-435 = system: MDA-MB-435
# MDA-N = system: MDA-N
# MOLT-4 = system: MOLT-4
# Malme-3M = system: Malme-3M
# NCI-H23 = system: NCI-H23
# NCI-H460 = system: NCI-H460
# NCI/ADR-RES = system: NCI/ADR-RES
# OVCAR-3 = system: OVCAR-3
# OVCAR-4 = system: OVCAR-4
# OVCAR-5 = system: OVCAR-5
# PC-3 = system: PC-3
# RPMI-8226 = system: RPMI-8226
# RXF 393 = system: RXF 393
# SF-268 = system: SF-268
# SF-295 = system: SF-295
# SF-539 = system: SF-539
# SK-MEL-28 = system: SK-MEL-28
# SK-MEL-2 = system: SK-MEL-2
# SK-MEL-5 = system: SK-MEL-5
# SK-OV-3 = system: SK-OV-3
# SN12C = system: SN12C
# SNB-19 = system: SNB-19
# SNB-75 = system: SNB-75
# SR = system: SR
# SW-620 = system: SW-620
# T47D = system: T47D
# TK-10 = system: TK-10
# U-251 = system: U-251
# UACC-257 = system: UACC-257
# UACC-62 = system: UACC-62
# UO-31 = system: UO-31
# EKVX = system: EKVX
# NCI-H226 = system: NCI-H226
# NCI-H522 = system: NCI-H522
# OVCAR-8 = system: OVCAR-8
compound,measurement,setting,value
O=CC(O)C(O)C(O)C(O)COC(=O)NCCCCC(=O)C(F)(F)C(F)(F)C(F)(F)C(F)(F)C(F)(F)C(F)(F)C(F)(F)F (centres undefined),GI50,786-0,32.7 µM (inactive)
same,GI50,A498,20.7 µM (inactive)
same,GI50,A549,28.8 µM (inactive)
same,GI50,ACHN,30.2 µM (inactive)
same,GI50,BT-549,16.1 µM (inactive)
same,GI50,CAKI-1,49.8 µM (inactive)
same,GI50,CCRF-CEM,18.4 µM (inactive)
same,GI50,COLO 205,30.5 µM (inactive)
same,GI50,DU-145,47.6 µM (inactive)
same,GI50,HCC 2998,24.5 µM (inactive)
same,GI50,HCT-116,18 µM (inactive)
same,GI50,HCT-15,50.2 µM
same,GI50,HL-60,27.4 µM (inactive)
same,GI50,HOP-62,23.6 µM (inactive)
same,GI50,HOP-92,13.2 µM (inactive)
same,GI50,HT-29,32.7 µM (inactive)
same,GI50,Hs-578T,22.4 µM (inactive)
same,GI50,IGROV-1,29.7 µM (inactive)
same,GI50,K562,11.8 µM (inactive)
same,GI50,KM12,19.1 µM (inactive)
same,GI50,LOX IMVI,15.3 µM (inactive)
same,GI50,M14,23.7 µM (inactive)
same,GI50,MCF7,19.1 µM (inactive)
same,GI50,MDA-MB-231,20 µM (inactive)
same,GI50,MDA-MB-435,24.2 µM (inactive)
same,GI50,MDA-N,27.8 µM (inactive)
same,GI50,MOLT-4,10.7 µM (inactive)
same,GI50,Malme-3M,> 100 µM (inactive)
same,GI50,NCI-H23,32.9 µM (inactive)
same,GI50,NCI-H460,26.9 µM (inactive)
same,GI50,NCI/ADR-RES,> 100 µM (inactive)
same,GI50,OVCAR-3,47 µM (inactive)
same,GI50,OVCAR-4,51.8 µM (inactive)
same,GI50,OVCAR-5,17.2 µM (inactive)
same,GI50,PC-3,14.3 µM (inactive)
same,GI50,RPMI-8226,29.9 µM (inactive)
same,GI50,RXF 393,18.3 µM (inactive)
same,GI50,SF-268,24.8 µM (inactive)
same,GI50,SF-295,23.2 µM (inactive)
same,GI50,SF-539,19.8 µM (inactive)
same,GI50,SK-MEL-28,43.7 µM (inactive)
same,GI50,SK-MEL-2,27.6 µM (inactive)
same,GI50,SK-MEL-5,23.7 µM (inactive)
same,GI50,SK-OV-3,21.7 µM (inactive)
same,GI50,SN12C,32.4 µM (inactive)
same,GI50,SNB-19,16 µM (inactive)
same,GI50,SNB-75,22.9 µM (inactive)
same,GI50,SR,28.2 µM (inactive)
same,GI50,SW-620,19.9 µM (inactive)
same,GI50,T47D,> 100 µM (inactive)
same,GI50,TK-10,70.5 µM (inactive)
same,GI50,U-251,> 10 µM (inactive)
same,GI50,UACC-257,> 10 µM (inactive)
same,GI50,UACC-62,15.9 µM (inactive)
same,GI50,UO-31,> 100 µM (inactive)
COc1ccccc1[C@@H]1CCC2CC[C@@H](c3ccccc3OC)[N+]21Cc1ccccc1 (some centres undefined),GI50,786-0,1.94 µM (inactive)
same,GI50,A498,2.25 µM (inactive)
same,GI50,A549,1.99 µM (inactive)
same,GI50,ACHN,3.3 µM (inactive)
same,GI50,BT-549,0.893 µM (active)
same,GI50,CAKI-1,3.87 µM (inactive)
same,GI50,CCRF-CEM,1.73 µM (inactive)
same,GI50,COLO 205,0.44 µM (active)
same,GI50,DU-145,2.28 µM (inactive)
same,GI50,EKVX,0.223 µM (active)
same,GI50,HCT-116,1.6 µM (inactive)
same,GI50,HCT-15,3.76 µM
same,GI50,HL-60,0.478 µM (active)
same,GI50,HOP-62,2.33 µM (inactive)
same,GI50,HOP-92,0.968 µM (active)
same,GI50,HT-29,0.847 µM (active)
same,GI50,Hs-578T,4.49 µM (inactive)
same,GI50,IGROV-1,1.34 µM (inactive)
same,GI50,K562,0.344 µM (active)
same,GI50,KM12,0.522 µM (active)
same,GI50,LOX IMVI,1.69 µM (inactive)
same,GI50,M14,2.24 µM (inactive)
same,GI50,MCF7,0.581 µM (active)
same,GI50,MDA-MB-231,1.95 µM (inactive)
same,GI50,MDA-MB-435,0.585 µM (active)
same,GI50,MDA-N,0.632 µM (active)
same,GI50,MOLT-4,1.83 µM (inactive)
same,GI50,Malme-3M,2.3 µM (inactive)
same,GI50,NCI-H226,1.39 µM (inactive)
same,GI50,NCI-H23,0.948 µM (active)
same,GI50,NCI-H522,1.33 µM (inactive)
same,GI50,NCI/ADR-RES,13 µM (inactive)
same,GI50,OVCAR-3,0.887 µM (active)
same,GI50,OVCAR-4,1.64 µM (inactive)
same,GI50,OVCAR-5,2.88 µM (inactive)
same,GI50,OVCAR-8,1.27 µM (inactive)
same,GI50,PC-3,1.25 µM (inactive)
same,GI50,RPMI-8226,0.211 µM (active)
same,GI50,RXF 393,2 µM (inactive)
same,GI50,SF-268,3.64 µM (inactive)
same,GI50,SF-295,2.33 µM (inactive)
same,GI50,SK-MEL-28,3.56 µM (inactive)
same,GI50,SK-MEL-2,1.51 µM (inactive)
same,GI50,SK-MEL-5,0.36 µM (active)
same,GI50,SK-OV-3,2.84 µM (inactive)
same,GI50,SN12C,2.54 µM (inactive)
same,GI50,SNB-19,0.982 µM (active)
same,GI50,SNB-75,2.15 µM (inactive)
same,GI50,SR,1.03 µM (active)
same,GI50,SW-620,2.6 µM (inactive)
same,GI50,T47D,0.349 µM (active)
same,GI50,TK-10,5.74 µM (inactive)
same,GI50,U-251,0.385 µM (active)
same,GI50,UACC-257,0.521 µM (active)
same,GI50,UO-31,2.96 µM (inactive)
COc1cc(=O)oc(/C=C/C=C/C=C/C(C)=C\C2(C)OC(C)C(C)(O)C2O)c1C (centres undefined),GI50,786-0,> 100 µM (inactive)
same,GI50,A498,> 100 µM (inactive)
same,GI50,A549,> 100 µM (inactive)
same,GI50,ACHN,> 100 µM (inactive)
same,GI50,BT-549,> 100 µM (inactive)
same,GI50,CAKI-1,> 100 µM (inactive)
same,GI50,CCRF-CEM,> 100 µM (inactive)
same,GI50,COLO 205,> 100 µM (inactive)
same,GI50,DU-145,> 100 µM (inactive)
same,GI50,EKVX,> 100 µM (inactive)
same,GI50,HCT-116,> 100 µM (inactive)
same,GI50,HCT-15,> 100 µM
same,GI50,HL-60,> 100 µM (inactive)
same,GI50,HOP-62,> 100 µM (inactive)
same,GI50,HOP-92,> 100 µM (inactive)
same,GI50,HT-29,> 100 µM (inactive)
same,GI50,Hs-578T,0.923 µM (active)
same,GI50,IGROV-1,> 100 µM (inactive)
same,GI50,K562,> 100 µM (inactive)
same,GI50,KM12,87.9 µM (inactive)
same,GI50,LOX IMVI,> 100 µM (inactive)
same,GI50,M14,> 100 µM (inactive)
same,GI50,MCF7,> 100 µM (inactive)
same,GI50,MDA-MB-231,> 100 µM (inactive)
same,GI50,MDA-MB-435,> 100 µM (inactive)
same,GI50,MDA-N,> 100 µM (inactive)
same,GI50,MOLT-4,> 100 µM (inactive)
same,GI50,NCI-H226,> 100 µM (inactive)
same,GI50,NCI-H23,> 100 µM (inactive)
same,GI50,NCI-H460,> 100 µM (inactive)
same,GI50,NCI/ADR-RES,> 100 µM (inactive)
same,GI50,OVCAR-3,> 100 µM (inactive)
same,GI50,OVCAR-5,> 100 µM (inactive)
same,GI50,OVCAR-8,> 100 µM (inactive)
same,GI50,PC-3,> 100 µM (inactive)
same,GI50,RPMI-8226,> 100 µM (inactive)
same,GI50,SF-268,> 100 µM (inactive)
same,GI50,SF-295,> 100 µM (inactive)
same,GI50,SF-539,> 100 µM (inactive)
same,GI50,SK-MEL-28,> 100 µM (inactive)
same,GI50,SK-MEL-2,> 100 µM (inactive)
same,GI50,SK-MEL-5,> 100 µM (inactive)
same,GI50,SK-OV-3,> 100 µM (inactive)
same,GI50,SN12C,> 100 µM (inactive)
same,GI50,SNB-19,> 100 µM (inactive)
same,GI50,SNB-75,68.7 µM (inactive)
same,GI50,SR,> 100 µM (inactive)
same,GI50,SW-620,> 100 µM (inactive)
same,GI50,T47D,> 100 µM (inactive)
same,GI50,TK-10,> 100 µM (inactive)
same,GI50,U-251,> 100 µM (inactive)
same,GI50,UACC-257,> 100 µM (inactive)
same,GI50,UACC-62,> 100 µM (inactive)
same,GI50,UO-31,> 100 µM (inactive)
